Test results published in US20060004029A1, “Nitrogen-containing aromatic derivatives” (priority 2003, published 2006).

Experiments:
VEGFR2 = target: T1, VEGFR2 (Homo sapiens, UniProt P35968); assay: Inhibition against receptor tyrosine kinase activity (HTRF), VEGFR2; type: biochemical; settings: His6-VEGFR2 cytoplasmic domain, biotin-poly(GT), HTRF; read-out: VEGFR2 kinase IC50
T1 construct: coding for the cytoplasmic domain, beginning with lysine 791 and including the termination codon; made in house; host or cells: Sf9 insect cells, baculovirus (pFastBacHis)
Description: This assay is used to determine inhibition of a test substance on tyrosine kinase activity. […] Expression in an appropriate expression system can produce a polypeptide with tyrosine kinase activity. […] The recombinant construct was transfected into insect cells (Spondoptea frugiperda9 (Sf9)) to prepare a recombinant Baculovirus.
For expression of the VEGFR2 tyrosine kinase, Sf9 cells were infected with the VEGFR2 recombinant virus and collected after 48 hours. The collected cells were rinsed with ice-cooled phosphate buffered saline (PBS) and then resuspended using 20 ml of ice-cooled Lysis Buffer (50 mM Tris-HCl (pH 8.5), 5 mM 2-mercaptoethanol, 100 mM KCl, 1 mM phenylmethylsulfonyl fluoride, 1% (v/v) NP-40) per 1.5×10^8 cells. The suspension was centrifuged at 12,000 rpm for 30 minutes at 4° C. and the supernatant was obtained. The supernatant was added to a Ni-NTA agarose column (3 ml, purchased from Qiagen) equilibrated with Buffer A {20 mM Tris-HCl (pH 8.5), 5 mM 2-mercaptoethanol, 500 mM KCl, 20 mM imidazole, 10% (v/v) glycerol}. The column was washed with 30 ml of Buffer A, and then with 6 ml of Buffer B {20 mM Tris-HCl (pH 8.5), 5 mM 2-mercaptoethanol, 1M KCl, 10% (v/v) glycerol}, and finally with 6 ml of Buffer A. After washing, it was eluted with 6 ml of Buffer C {20 mM Tris-HCl (pH 8.5), 5 mM 2-mercaptoethanol, 100 mM KCl, 100 mM imidazole, 10% (v/v) glycerol}. The eluate was placed on a dialysis membrane (purchased from Spectrum Laboratories) and dialyzed with a dialysis buffer {20 mM Tris-HCl (pH 7.5), 10% (v/v) glycerol, 1 mM dithiothreitol, 0.1 mM Na3VO4, 0.1 mM EGTA}. […] Using the same method for the cytoplasmic domains of FGFR1, PDGFRβ and HGFR yielded respective recombinant proteins fused with 6 histidine residues at the N-terminal (His6-FGFR1, His6-PDGFRβ or His6-HGFR).
The tyrosine kinase reaction was conducted as follows. […] Next, 10 μl of 4 μM ATP (diluted with distilled water) was added prior to incubation at 30° C. for 10 minutes, and then 10 μl of 500 mM EDTA (pH 8.0) was added.
The tyrosine phosphorylation rate for the biotin-poly(GT) was expressed as the delta F % value as described in the HTRF Standard Experiment Methods text by CIS Diagnostics Co. The delta F % value in the presence of the test substance was determined as a ratio (%) with the delta F % value with addition of His6-VEGFR2 in the absence of the test substance defined as 100% and the delta F % value in the absence of both the test substance and His6-VEGFR2 defined as 0%.

FGFR1 = target: T2, FGFR1 (Homo sapiens, UniProt P11362); assay: Inhibition against receptor tyrosine kinase activity (HTRF), FGFR1; type: biochemical; settings: His6-FGFR1 cytoplasmic domain, biotin-poly(GT), HTRF; read-out: FGFR1 kinase IC50
T2 construct: made in house; host or cells: Sf9 insect cells, baculovirus (pFastBacHis), by the same method as VEGFR2
Excerpt: This assay is used to determine inhibition of a test substance on tyrosine kinase activity. DNA coding for the cytoplasmic domain of VEGFR2 is obtained by total cDNA synthesis (Edwards M, International Biotechnology Lab 5(3), 19-25, 1987) or by cloning. Expression in an appropriate expression system can produce a polypeptide with tyrosine kinase activity. […] For VEGFR2 (GenBank Accession No. L04947), the 1.7 kb DNA fragment described by Terman et al. (Oncogene, 6(9), 1677-1683, 1991), coding for the cytoplasmic domain, beginning with lysine 791 and including the termination codon, was isolated from a human placental cDNA library (purchased from Clontech Laboratories, Inc.) and cloned in a Baculovirus expression vector (pFastBacHis, purchased from GIBCO BRL). The recombinant construct was transfected into insect cells (Spondoptea frugiperda9 (Sf9)) to prepare a recombinant Baculovirus. (Instructions for preparation and use of recombinant Baculovirus may be found in standard texts, such as “Bac-To-Bac Baculovirus Expression System” (GIBCO BRL).) The cytoplasmic fragment starting from lysine 398 (FGFR1, GenBank Accession No. X52833), the cytoplasmic fragment starting from lysine 558 (PDGFRβ, GenBank Accession No. M21616) or the cytoplasmic fragment starting from lysine 974 (HGFR, GenBank Accession No. J02958) may be cloned and expressed by the same method for use in assays for other tyrosine kinases. EGFR was purchased from Sigma Co. (Product No. E-2645).
For expression of the VEGFR2 tyrosine kinase, Sf9 cells were infected with the VEGFR2 recombinant virus and collected after 48 hours. The collected cells were rinsed with ice-cooled phosphate buffered saline (PBS) and then resuspended using 20 ml of ice-cooled Lysis Buffer (50 mM Tris-HCl (pH 8.5), 5 mM 2-mercaptoethanol, 100 mM KCl, 1 mM phenylmethylsulfonyl fluoride, 1% (v/v) NP-40) per 1.5×10^8 cells. The suspension was centrifuged at 12,000 rpm for 30 minutes at 4° C. and the supernatant was obtained. The supernatant was added to a Ni-NTA agarose column (3 ml, purchased from Qiagen) equilibrated with Buffer A {20 mM Tris-HCl (pH 8.5), 5 mM 2-mercaptoethanol, 500 mM KCl, 20 mM imidazole, 10% (v/v) glycerol}. The column was washed with 30 ml of Buffer A, and then with 6 ml of Buffer B {20 mM Tris-HCl (pH 8.5), 5 mM 2-mercaptoethanol, 1M KCl, 10% (v/v) glycerol}, and finally with 6 ml of Buffer A. After washing, it was eluted with 6 ml of Buffer C {20 mM Tris-HCl (pH 8.5), 5 mM 2-mercaptoethanol, 100 mM KCl, 100 mM imidazole, 10% (v/v) glycerol}. The eluate was placed on a dialysis membrane (purchased from Spectrum Laboratories) and dialyzed with a dialysis buffer {20 mM Tris-HCl (pH 7.5), 10% (v/v) glycerol, 1 mM dithiothreitol, 0.1 mM Na3VO4, 0.1 mM EGTA}. After dialysis, it was supplied for SDS-electrophoresis, and the recombinant protein (His6-VEGFR2, cytoplasmic domain of VEGFR2 fused with 6 histidine residues at the N-terminus) detected at a molecular weight of approximately 100 kDa with Coumassie Brilliant Blue staining was assayed using BSA (bovine serum albumin, purchased from Sigma Co.) as the standard substance, and stored at −80° C. until use. Using the same method for the cytoplasmic domains of FGFR1, PDGFRβ and HGFR yielded respective recombinant proteins fused with 6 histidine residues at the N-terminal (His6-FGFR1, His6-PDGFRβ or His6-HGFR).
The tyrosine kinase reaction was conducted as follows. In the case of VEGFR2, for example, 10 μl of a kinase reaction solution {200 mM Hepes (pH 7.4), 80 mM MgCl2, 16 mM MnCl2, 2 mM Na3VO4}, 250 ng of biotin-bound poly(Glu4:Tyr1) (biotin-poly(GT), purchased from CIS Diagnostics Co.) (6 μl of a 15-fold dilution with distilled water), 15 ng of His6-VEGFR2 (10 μl of a 240-fold dilution with 0.4% BSA solution) and the test substance dissolved in dimethyl sulfoxide (4 μl of a 100-fold dilution with 0.1% BSA solution) were added into each well of a 96-well round-bottom plate (NUNC Co., Product No. 163320), to a total of 30 μl. […]

T1 sequence (P35968 786-1356 limits assumed): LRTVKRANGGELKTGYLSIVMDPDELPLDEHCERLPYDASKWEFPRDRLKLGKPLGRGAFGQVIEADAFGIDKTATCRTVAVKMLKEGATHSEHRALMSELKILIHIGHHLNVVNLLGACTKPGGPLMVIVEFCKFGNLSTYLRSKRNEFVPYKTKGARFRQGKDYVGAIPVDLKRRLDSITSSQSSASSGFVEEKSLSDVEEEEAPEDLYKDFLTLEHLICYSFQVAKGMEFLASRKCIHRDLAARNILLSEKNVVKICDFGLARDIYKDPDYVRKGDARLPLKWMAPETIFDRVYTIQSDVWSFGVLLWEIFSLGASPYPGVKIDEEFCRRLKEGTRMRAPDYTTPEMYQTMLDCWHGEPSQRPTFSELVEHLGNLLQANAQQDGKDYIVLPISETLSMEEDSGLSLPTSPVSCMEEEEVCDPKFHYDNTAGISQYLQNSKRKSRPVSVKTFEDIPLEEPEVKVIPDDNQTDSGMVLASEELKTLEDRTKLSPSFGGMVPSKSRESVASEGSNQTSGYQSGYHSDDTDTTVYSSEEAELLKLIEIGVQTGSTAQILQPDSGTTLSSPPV
T2 sequence (P11362 398-822 limits assumed): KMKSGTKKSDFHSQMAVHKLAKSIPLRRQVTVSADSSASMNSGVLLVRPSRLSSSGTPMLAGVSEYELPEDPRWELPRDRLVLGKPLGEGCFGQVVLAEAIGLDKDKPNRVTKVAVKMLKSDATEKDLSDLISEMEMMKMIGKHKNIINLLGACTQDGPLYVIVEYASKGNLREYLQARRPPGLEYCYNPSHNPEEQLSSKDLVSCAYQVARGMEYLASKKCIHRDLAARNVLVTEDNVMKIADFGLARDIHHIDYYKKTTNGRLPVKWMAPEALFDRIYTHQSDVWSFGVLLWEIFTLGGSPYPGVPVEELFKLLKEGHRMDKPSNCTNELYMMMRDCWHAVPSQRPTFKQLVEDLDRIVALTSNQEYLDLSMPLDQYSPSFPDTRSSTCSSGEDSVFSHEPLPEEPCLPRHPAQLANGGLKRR

Q: What does the source list for `O=C(Nc1cc(Oc2ccc3c(ccn3C(=O)NC3CC3)c2)ccn1)N1CCCC1` [Example 88, N1-Cyclopropyl-5-(2-((pyrrolidin-1-ylcarbonyl)amino)-4-pyridyl)oxy-1H-1-indolecarboxamide]?
A: IC50 (VEGFR2): 14 nM; IC50 (FGFR1): 24 nM

Q: What does the source list for `CNC(=O)n1cc(Cl)c2cc(Oc3ccnc(NC(=O)N4CCC(O)CC4)c3)ccc21` [Example 104, N1-Methyl-3-chloro-5-(2-((4-hydroxypiperidino)carbonyl)amino-4-pyridyl)oxy-1H-1-indolecarboxamide]?
A: IC50 (VEGFR2): 3.9 nM; IC50 (FGFR1): 19 nM

Q: For `CNC(=O)Nc1cc(Oc2ccc3c(ccn3C(=O)NC)c2)ccn1` [Example 116, N1-Methyl-5-(2-((methylamino)carbonyl)amino-4-pyridyl)oxy-1H-1-indolecarboxamide], which IC50 (VEGFR2) is on record?
A: 14 nM

Q: And the IC50 (FGFR1)?
A: 87 nM

Q: For `CCN(CC)C(=O)Nc1cc(Oc2ccc3c(ccn3C(=O)NC)c2)ccn1` [Example 119, N1-Methyl-5-(2-((diethylamino)carbonyl)amino-4-pyridyl)oxy-1H-1-indolecarboxamide], which IC50 (VEGFR2) is on record?
A: 21 nM

Q: And the IC50 (FGFR1)?
A: 120 nM

Q: What does the source list for `C#CCNC(=O)n1ccc2cc(Oc3ccnc(NC(=O)N4CCCC4)c3)ccc21` [Example 139, N1-(2-Propynyl)-5-(2-((pyrrolidin-1-yl)carbonyl)amino-4-pyridyl)oxy-1H-1-indolecarboxamide]?
A: IC50 (VEGFR2): 6.3 nM; IC50 (FGFR1): 190 nM

Q: How did the IC50 (VEGFR2) turn out when `CNC(=O)n1ccc2cc(Oc3ccnc(NC(=O)N4CCC4)c3)ccc21` [Example 206, N1-Methyl-5-(2-(azetidin-1-ylcarbonyl)amino-4-pyridyl)oxy-1H-1-indolecarboxamide] was run?
A: 4.1 nM

Q: And the IC50 (FGFR1)?
A: 3.5 nM

Q: How did the IC50 (VEGFR2) turn out when `CCNC(=O)n1ccc2cc(Oc3ccnc(NC(=O)N4CCC4)c3)ccc21` [Example 207, N1-Ethyl-5-(2-(azetidin-1-ylcarbonyl)amino-4-pyridyl)oxy-1H-1-indolecarboxamide] was run?
A: 4.6 nM

Q: And the IC50 (FGFR1)?
A: 12 nM

Q: For `O=C(Nc1cc(Oc2ccc3c(ccn3C(=O)NC3CC3)c2)ccn1)N1CCC1` [Example 208, N1-Cyclopropyl-5-(2-(azetidin-1-ylcarbonyl)amino-4-pyridyl)oxy-1H-1-indolecarboxamide], which IC50 (VEGFR2) is on record?
A: 7.7 nM

Q: What about the IC50 (FGFR1) of the same compound?
A: 6.8 nM

Q: Which results are given for `CNC(=O)n1ccc2cc(Oc3ccnc(NC(=O)N4CCC(N5CCOCC5)CC4)c3)ccc21` [Example 209, N1-Methyl-5-(2-(((4-(morpholin-4-yl)piperidin-1-yl)carbonyl)amino)pyridin-4-yloxy)-1H-1-indolecarboxamide]?
A: IC50 (VEGFR2): 17 nM; IC50 (FGFR1): 29 nM

Q: Which IC50 (VEGFR2) does the source give for `CNC(=O)n1ccc2cc(Oc3ccnc(NC(=O)N4CCC(N5CCC5)CC4)c3)ccc21` [Example 210, N1-Methyl-5-(2-(((4-(azetidin-1-yl)piperidin-1-yl)carbonyl)amino)pyridin-4-yloxy)-1H-1-indolecarboxamide] here?
A: 8.1 nM

Q: And the IC50 (FGFR1)?
A: 40 nM

Q: Which IC50 (VEGFR2) does the source give for `CCN(CC)C1CCN(C(=O)Nc2cc(Oc3ccc4c(ccn4C(=O)NC)c3)ccn2)CC1` [Example 211, N1-Methyl-5-(2-(((4-(diethylamino)piperidin-1-yl)carbonyl)amino)pyridin-4-yloxy)-1H-1-indolecarboxamide] here?
A: 45 nM

Q: And the IC50 (FGFR1)?
A: 36 nM

Q: How did the IC50 (VEGFR2) turn out when `CNC(=O)n1ccc2cc(Oc3ccnc(NC(=O)N4CCC(N5CCC(O)CC5)CC4)c3)ccc21` [Example 212, N1-Methyl-5-(2-(((4-(4-hydroxypiperidin-1-yl)piperidin-1-yl)carbonyl)amino)pyridin-4-yloxy)-1H-1-indolecarboxamide] was run?
A: 8.6 nM

Q: What about the IC50 (FGFR1) of the same compound?
A: 19 nM

Q: For `CCCNC(=O)n1ccc2cc(Oc3ccnc(NC(=O)N4CCCC4)c3)ccc21` [Example 213, N1-Propyl-5-(2-(pyrrolidin-1-ylcarbonyl)amino-4-pyridyl)oxy-1H-1-indolecarboxamide], which IC50 (VEGFR2) is on record?
A: 10 nM

Q: What about the IC50 (FGFR1) of the same compound?
A: 330 nM

Q: What does the source list for “N1-Methyl-5-(2-((4-(2-hydroxy-2-methylpropionyl)piperazin-1-yl)carbonyl)amino-4-pyridyl)oxy-1H-indolecarboxamide [Example 28]”?
A: IC50 (VEGFR2): 4.5 nM; IC50 (FGFR1): 4.1 nM
